Where two headings read alike, the source gives them in different places.
Columns and labels:
Format in all cases: cell-based, human
[1] = test system: PDE4 mRNA in HPBL; experiment: RT-PCR amplification of transcripts in HPBL
Method: (§1) HPBL were purified from 30-60 ml of blood obtained from normal donors by defribrination with glass beads to remove platelets, incubated with tetracarbonyl iron to minimize monocyte contamination and centrifuged on Ficoll-Hypaque density gradients to achieve cell separation. […] For this stimulation, cells were placed in 25 cm^2 flasks in a total volume of 10 ml/flask.
(§2) First strand cDNA was synthesized from the RNA using a Superscript Preamplification System from GIBCO/BRL. […] To this was added 10 mM Tris/HCl pH 8.4, 50 mM KCl, 2.5 mM MgCl2, 10 mM DTT, 500 μM each of dGTP, dATP, dCTP and dTTP in a total volume of 20 μl, and the resultant mix was incubated at room temperature for 5 min. Superscript II reverse transcriptase (2 U) was then added and incubation continued at 42° C. for 50 min. at 70° C. for 15 min. RNase H (2 U) was then added and incubation carried out for 20 min. at 37° C. PCR amplification was carried out in a total volume of 50 μl using 2 μl of cDNA, 20 mM Tris/HCl pH 8.4, 50 mM KCl, 1.5 mM MgCl2, 200 μM each of dGTP, dATP, dCTP and dTTP and 0.4 μM of sense and antisense primers specific for different isogenes of human PDE4, human β-actin and human PDE1B1, as described hereinafter. The PCR reaction mixture was incubated at 94° C. for 5 min. followed by the addition of 0.5 μl Taq DNA polymerase (5 U/μl, GIBCO/BRL). PCR amplification was then carried out for 35 cycles at 94° C. for 1 min., 58° C. for 1 min., 72° C. for 1 min., followed by a final extension at 72° C. for 10 min., except where indicated otherwise. A sample of amplified DNA (10 μl) was resolved on a 1.5% agarose gel containing 0.5 μg/ml ethidium bromide and visualized and photographed under UV light. […] PCR amplification with primers specific for human β-actin were run for every cell sample, as positive controls to ensure that the isolated RNA was not degraded, and for normalization to verify that relatively equal amounts of RNA were used for the first strand cDNA synthesis reactions.
(§3) Primers specific for PDE4A, PDE4B, PDE4C, and PDE4D3 were synthesized. […] M37744; HSPDE4A4B (PDE-46), GenBank no. L20965; HSPDE4A4C (h6.1), GenBank no. U18087. […] U88712 and U88713.

[2] = test system: PDE4B mRNA in RPMI 8392 cells; experiment: RT-PCR amplification of PDE4 subtype transcripts in RPMI 8392 cells; conditions: agent alone
[3] = test system: PDE4D3 mRNA in RPMI 8392 cells; experiment: as above; conditions: agent alone
[4] = test system: RPMI 8392 cells; experiment: Apoptosis by endonuclease-digested DNA (DNA laddering) on agarose gels; conditions: Homo sapiens, read-out: Concentrations at which apoptosis was induced
Method: The preferred method for testing the ability of AS ODN to induce apoptosis as determined by detection of endonuclease digested DNA on agarose gels employs the following sequence:
(2) Cells are grown to ≈10^6 /ml, collected by centrifugation for 5 min. at 300×g (1000 rpm in an IEC Model K centrifuge), resuspended in growth medium to 10^6 cells/ml, and placed in a 24 well tissue culture plate at 1 ml/well. The cell volumes are kept to a minimum (i.e., -1 ml), in order to reduce the amount of ODN needed. The fetal bovine serum used in the growth medium for this step is heat-inactivated at 65° C. for 1 hr. to minimize serum nuclease activity.
(4) Cells are then incubated for varying times, usually 1-3 days, following which the DNA is isolated.
The supernatant is aspirated down to ≈50 μl of volume and the cell pellet is resuspended in this remaining small volume.
(6) About 400 μl of cold cell lysis buffer (50 mM Tris-HCl, pH 7.5, 10 mM EDTA, 1% Triton X-100) is then added.
(9) The upper, aqueous phase is transferred to a fresh microfuge tube and 250 μl of phenol and 250 μl of chloroform are added, the mixture gently vortexed for 5 sec., and centrifuged at 16,650×g for 5 min.
(10) The upper, aqueous phase is again transferred to a fresh microfuge tube and 500 μl of chloroform is added, followed by gentle vortexing and centrifugation at 16,650×g for 3 min.
(11) The upper, aqueous phase is again transferred to a fresh microfuge tube, 3M sodium acetate (pH 5.2) is added to a final concentration of 0.3M, and 2.5 volumes of ice cold 100% ethanol is added. The solution is left overnight at -20° C. to precipitate the DNA.
(12) The DNA is collected by centrifugation at 16,650×g for 15 min., the supernatant decanted, and the pellet air dried for ≈30-60 min. at room temperature. The DNA pellet is then dissolved in 50 μl of pH 8.0 TE buffer at room temperature overnight.
(13) One μl of a 4 mg/ml solution of DNase-free RNase A is then added to the DNA and incubation is carried out at 37° C. for 30 min. This step is necessary to prevent contaminating RNA from obscuring the gel.
(14) Thirty μl of DNA solution is then mixed with 6 μl of 6× loading buffer and run on a 2% agarose gel, containing 0.5 μg/ml ethidium bromide, in 0.5× TBE buffer (45 mM Tris-borate, 1 mM EDTA, pH 8.0) at ≈50 V for ≈1.5 hr. The 6× loading buffer used is 0.25% xylene cyanol and 30% glycerol. The use of bromophenol blue is omitted for this analysis because it tends to obscure the visualization of the DNA ladder pattern.
(15) The gel is then visualized and photographed under UV light.
The effect of pharmacological inhibition of each of these PDE activities on induction of apoptosis in RPMI 8392 cells was tested, using the appearance of oligonucleosome length fragments of endonuclease digested DNA as a measure of apoptosis.
Markers (lane 1 in both gels) are 1 kb DNA ladder size markers from GIBCO/BRL.
Cells (10^6) were collected by centrifugation at 670×g for 5 min. The cell pellets were rinsed once with 0.2M dibasic sodium phosphate and lysed in 300 μl of lysis buffer (50 mM Tris/HCl pH 7.5, 10 mM EDTA, 1% V/V Triton X-100) for 20 min on ice. Proteinase K was added to 0.5 mg/ml and DNase-free RNase was added to 50 μg/ml and the extract incubated at 37° C. for 1 hr. DNA was then extracted in phenol/chloroform (1:1) and chloroform (1:1) and precipitated in 2.5 volumes of ethanol. The extracted DNA was electrophoresed on 2% agarose gels, the gels stained with 0.5 μg/ml ethidium bromide and photographed under UV light.
Experiments were conducted to determine if inhibition of the expression of the gene for PDE1B1 could induce apoptosis.

[5] = test system: isolated, quiescent HPBL; experiment: TUNEL assay of apoptosis, flow cytometry, quiescent HPBL; conditions: mitogen PHA added to HPBL in culture
Text: Nevertheless, the effects of AS ODNs on HPBL can still be tested by quantifying and comparing the percentage of cells undergoing apoptosis in the presence and absence of the AS ODN. Apoptosis detected by examining endonuclease-digested DNA, commonly referred to as the DNA laddering technique, has been employed and the results therefrom are set forth in FIG. 5. However, we prefer to use a TUNEL assay, an acronym for terminal deoxynucleotidyl transferase (TdT)-mediated dUTP nick end labeling, which more readily allows quantitation of the percentage of cells undergoing apoptosis. The principle of the TUNEL assay is that endonuclease digestion during apoptosis results in the formation of 3'-OH ends in the digested DNA. The digested DNA in the apoptotic cells can then be labeled with fluorescein by catalytically incorporating fluorescein-12-dUTP at the 3'-OH ends using the TdT enzyme. Fluorescence can then be quantitated by flow cytometry, using a fluorescence activated cell sorter (FACS), which would give a measure of the number of cells undergoing apoptosis. An example of the appearance of a population of fluorescein labeled apoptotic cells, as evidenced by flow cytometry, following TUNEL assay labeling of the cells, is shown in FIGS. 6A-C. Cells were then cultured for 3 days with 10 μg/ml PHA-P (Sigma), in the absence of any ODN (FIG. 6A), in the presence of 30 μM NS ODN (FIG. 6B), or in the presence of 30 μM AS ODN (FIG. 6C). Cells were then collected by centrifugation and fluorescein labeled by the TUNEL assay using the Promega Apoptosis Detection System. Flow cytometry was performed on a Beckton Dickinson FACScan by the FACS facility.
The procedure for analyzing apoptosis by the TUNEL method uses either an In Situ Cell Death Kit, Fluorescein from Boehringer Mannheim or an Apoptosis Detection System, Fluorescein from Promega and follows the protocols of the manufacturers. The data in FIGS. 6 and 7 was obtained using the manufacturer's protocol for the Apoptosis Detection System, Fluorescein from Promega. […]

[6] = test system: PDE1B1 mRNA in HPBL; experiment: RT-PCR amplification of transcripts in HPBL
Method: as §1, §2, §3

[7] = test system: PDE4A mRNA in HPBL; experiment: RT-PCR amplification of transcripts in HPBL; conditions: 10 μg/ml PHA-P, 18 and 48 hr
Method: as §1, §2, §3

[8] = test system: PDE4D1 and D2 mRNA in HPBL; experiment: RT-PCR amplification of transcripts in HPBL; conditions: 10 μg/ml PHA-P, 18 and 48 hr
Method: as §1, §2, §3

[9] = test system: PDE4D3 mRNA in HPBL; experiment: RT-PCR amplification of transcripts in HPBL; conditions: 10 μg/ml PHA-P, more prominent at 48 hr than 18 hr
Method: as §1, §2, §3

CC(C)Cn1c(=O)n(C)c(=O)c2[nH]cnc21 [IBMX, 1-methyl-3-isobutylxanthine]
PDE4 mRNA expression, compared with dbcAMP plus IBMX ([1]; IBMX (0.1 mM) alone): same effects | Expression of PDE4B mRNA, compared with dbcAMP plus IBMX [2]: reproduced | Expression of PDE4D3 mRNA, compared with dbcAMP plus IBMX [3]: reproduced

CCCCOc1cc(CC2CNC(=O)N2)ccc1OC (centres unmarked) [RO 20-1724]
minimal effective concentration ([4]; 24 h): ≥ 10 µM

CCCC(=O)Nc1ncnc2c1ncn2[C@@H]1O[C@@H]2COP(=O)(O)O[C@H]2[C@H]1OC(=O)CCC [dbcAMP, dibutyryl cAMP]
PDE4 mRNA expression, compared with dbcAMP plus IBMX ([1]; dbcAMP (1 mM) alone): same effects | Expression of PDE4B mRNA, compared with dbcAMP plus IBMX [2]: reproduced | Expression of PDE4D3 mRNA, compared with dbcAMP plus IBMX [3]: reproduced

COc1ccc(C2CNC(=O)C2)cc1OC1CCCC1 (centres unmarked) [rolipram]
minimal effective concentration ([4]; RPMI 8392 cells, culture for 24 hr): ≥ 10 µM

phytohemagglutinin [PHA]
Spontaneous apoptosis of HPBL in culture (TUNEL) [5]: prevented the HPBL from undergoing spontaneous apoptosis | Expression of the mRNA for PDE1B1 ([6]; 10 μg/ml PHA-P, 18 and 48 hr): readily apparent | PDE1B1 RT-PCR cDNA fragment (≈333 nt) ([6]; PHA for 3 days): show a cDNA fragment of the predicted size | Expression of PDE4A mRNA [7]: striking induction | Expression of PDE4D1 and D2 mRNA [8]: some increase in the expression | Expression of PDE4D3 mRNA [9]: huge induction

Reference: patent US5885834A, “Antisense oligodeoxynucleotide against phosphodiesterase” (priority 1997, dated 1999)
